pIC50, pKd: −log10 of the molar value. Read-outs that look alike come from different tables or passages of the source.
Columns and labels:
PDHK2 = PDHK2 (Homo sapiens (Human), UniProt Q15119); experiment: Biochemical activity testing of PDHK2: PDC inactivation assay; details: human rec PDHK2, porcine heart PDC, 5 μM ATP, read-out: IC50 PDHK2 (enzyme assay)
From the text: Biochemical Activity Testing of PDHK2: PDC Inactivation Assay
The biochemical activity assay for PDHK2 is based on the inactivation of PDC through phosphorylation by PDHK2. The assay is run in two steps: the enzymatic PDHK2 reaction in which isolated PDC is phosphorylated by PDHK2 with ATP as co-substrate and the PDC activity assay in which pyruvate and NAD are converted to acetyl-CoA and NADH. The PDC activity correlates to the increase in NADH and thereby is detectable directly via the increasing fluorescence signal (Exc 340 nm, Em 450 nm). Inhibition of PDHK2 results in a lower phosphorylation status and thereby a less decrease in activity of PDC and a stronger increase in NADH fluorescence signal.
The PDC inactivation assay is performed in Greiner 384-well microtiter plates and is used for high throughput screen. 4 μl of PDHK2 (human, rec, Carna Bioscience, 10 ng/μl-137 nM final concentration) and PDC (isolated from porcine heart, Sigma-Aldrich, 20 mU/ml final concentration) are incubated in the absence or presence of the test compound (10 dilution concentrations) for 30 min at room temperature in kinase buffer (15 mM potassium phosphate buffer, pH 7.0, 60 mM KCl, 1.5 mM DTT, 2.5 mM MgCl2, 0.0125% (w/v) BSA, 0.125% Pluronic F-68). The kinase reaction is started by the addition of 4 μl ATP substrate solution (fc 5 μM in kinase buffer). After 30 min incubation at 37° C. 40 μl of PDC reaction solution (100 mM Tris/HCl, pH 7.8, 0.5 mM EDTA, 1 mM MgCl2, 50 mM NaF, 0.25 mM Coenzyme A, 5 mM pyruvate, 1 mM NAD, 5 mM DTT, 1 mM thiamine pyrophosphate) is added. The first fluorescence measurement is performed on a Perkin Elmer Envision (Exc 340 nm, Em 450 nm). The reaction is incubated for 45 min at room temperature. Afterwards a second fluorescence measurement is performed and the PDC activity is calculated by the difference between both measurements. As full value for the PDHK2 assay the inhibitor-free PDHK2 reaction is used. The pharmacological zero value used is DCA (Sigma-Aldrich) in a final concentration of 3 mM. The inhibitory values […] were determined using either the program Symyx Assay Explorer® or Condosseo® from GeneData.

human PDHK2 (12-407) = human PDHK2 (12-407) (Homo sapiens (Human), UniProt Q15119); experiment: Isothermal titration calorimetry (ITC) binding; details: ITC at 30° C., pH 7.5
Procedure: Isothermal Titration Calorimetry
ITC measurements were performed with a VP-ITC micro calorimeter (Microcal, LLC/GE Healthcare Bio-Sciences Aft Uppsala, Sweden). In general titrations were performed by titrating the protein (50 μM) to the test compound (5 μM) in 12 μl injections. All binding experiments were carried out at 30° C. In general the test compounds were diluted form DMSO stock solutions into the measurement buffer with a maximum final concentration of 1% DMSO. The measurement buffer was 20 mM HEPES, 135 mM KCl, 1 mM TCEP, 2 mM MgCl2, 15 mM NaH2PO4, pH 7.5. The human PDHK2 (12-407) was produced in E. coli as his-tagged protein and purified by affinity chromatography. The tag was removed by side specific proteolysis. Before titration the protein buffer was changed to the measurement buffer containing the same DMSO concentration as the test compound dilution. ITC data analysis was performed using Origin 7 calorimetry software from the same supplier. For most measurements a binding model of one binding site was assumed. According to the applied mathematical model it is possible to calculate the binding constant (KA), the observed binding enthalpy (ΔH^obs) as well as the stoichiometry (N) of the formed complex.
Preceding analysis the raw data was corrected for the heats of dilution by extrapolating from the saturation value from the end of titration. In order to allow for direct comparison between the respective experimental series and protein preparations the protein concentration was corrected by referencing titrations to a well behaved standard inhibitor. The apparent stoichiometry values defined the fraction of binding competent protein and compensated for relative errors in protein concentration measurements. This corrected protein concentration was used to set up ITC experiment series with test compounds. Any deviations from ideal 1:1 stoichiometry observed here were attributed to errors in compound concentration. This nominal compound concentration was corrected as well to achieve 1:1 stoichiometry in the fit.

[1] = test system: PDH-E1alpha (pSer300) in HEK293T cells; experiment: Cellular immunofluorescence assay, PDH-E1alpha (pSer300) in HEK293T cells; type: cell-based, human; details: 5 hours incubation, anti-PDH-E1alpha (pSer300) immunofluorescence, read-out: IC50 (cell data)
Procedure: Cellular Assay for Determination of Compound Activities
Compound activities were determined in a cellular immunofluorescence assay. Human HEK293T cells were seeded into black 384-well plates with clear bottom and grown overnight.
Next day, test compounds were added to the wells and the plates incubated for 5 hours. Following this, cells were fixed with formaldehyde, permeabilised and blocked. The primary antibody, Anti-PDH-E1alpha (pSer300), AP1064 (Merck Millipore) was added and incubated overnight in the plate wells. Next, cells were washed and the secondary antibody, Alexa Fluor 488, goat anti-rabbit ab (A-11008, Invitrogen) was added together with Hoechst 33258 (H3569, Invitrogen) and incubated for 1 hour in the plate wells. Finally, cells were washed and the plates were measured on the laser scanning cytometer acumen hci (TTpLabtech).
The raw data were normalized against a pharmacological inhibitor control and dose response curves were generated by plotting the percent effect values using the software package Genedata screener (Genedata).

Row | Structure (SMILES) | pIC50 (PDHK2) | pKd (human PDHK2 (12-407)) | pIC50 ([1]; Homo sapiens, HEK-293T) | pIC50 [1]
1 | C[C@@H]1CN(C(=O)[C@@](C)(O)C(F)(F)F)Cc2cnn(-c3ccc(F)cc3F)c21 [Compound A20, (R)-1-[(R)-1-(2,4-Difluoro-phenyl)-7-methyl-1,4,6,7-tetrahydro-pyrazolo[4,3-c]pyridin-5-yl]-3,3,3-trifluoro-2-hydroxy-2-methyl-propan-1-one] | > 6.52 | > 6.52 | > 6.52 | –
2 | C[C@@H]1CN(C(=O)[C@@](C)(O)C(F)(F)F)Cc2cnn(C(C)(C)C)c21 [Compound A22, (R)-1-((R)-1-tert-Butyl-7-methyl-1,4,6,7-tetrahydro-pyrazolo[4,3-c]pyridin-5-yl)-3,3,3-trifluoro-2-hydroxy-2-methyl-propan-1-one] | > 6.52 | > 6.52 | > 6.52 | –
3 | C[C@@H]1CN(C(=O)[C@@](C)(O)C(F)(F)F)Cc2cnn(-c3ccccc3F)c21 [Compound A24, (R)-3,3,3-Trifluoro-1-[(R)-1-(2-fluoro-phenyl)-7-methyl-1,4,6,7-tetrahydro-pyrazolo[4,3-c]pyridin-5-yl]-2-hydroxy-2-methyl-propan-1-one] | > 6.52 | > 6.52 | > 6.52 | –
4 | C[C@@H]1CN(C(=O)[C@@](C)(O)C(F)(F)F)Cc2cn[nH]c21 [Compound A28, (R)-3,3,3-Trifluoro-2-hydroxy-2-methyl-1-((R)-7-methyl-1,4,6,7-tetrahydro-pyrazolo[4,3-c]pyridin-5-yl)-propan-1-one] | 5.52 to 6.52 | > 6.52 | 4.30 to 5.52 | –
5 | C[C@@H]1CN(C(=O)[C@@](C)(O)C(F)(F)F)Cc2cnn(-c3ncccc3F)c21 [Compound A32, (R)-3,3,3-Trifluoro-1-[(R)-1-(3-fluoro-pyridin-2-yl)-7-methyl-1,4,6,7-tetrahydro-pyrazolo[4,3-c]pyridin-5-yl]-2-hydroxy-2-methyl-propan-1-one] | > 6.52 | > 6.52 | > 6.52 | –
6 | C[C@@H]1CN(C(=O)[C@@](C)(O)C(F)(F)F)Cc2cnn(-c3ncc(F)cc3F)c21 [Compound A34, (R)-1-[(R)-1-(3,5-Difluoro-pyridin-2-yl)-7-methyl-1,4,6,7-tetrahydro-pyrazolo[4,3-c]pyridin-5-yl]-3,3,3-trifluoro-2-hydroxy-2-methyl-propan-1-one] | > 6.52 | > 6.52 | > 6.52 | –
7 | COc1ncc(F)c(-n2ncc3c2[C@@H](C)CN(C(=O)[C@@](C)(O)C(F)(F)F)C3)n1 [Compound A37, (R)-3,3,3-Trifluoro-1-[(S)-1-(5-fluoro-2-methoxy-pyrimidin-4-yl)-7-methyl-1,4,6,7-tetrahydro-pyrazolo[4,3-c]pyridin-5-yl]-2-hydroxy-2-methyl-propan-1-one] | 5.52 to 6.52 | 5.52 to 6.52 | 4.30 to 5.52 | –
8 | C[C@@H]1CN(C(=O)[C@@](C)(O)C(F)(F)F)Cc2cnn(C3CCC(O)CC3)c21 (stereo partly drawn) [Compound A38, (R)-3,3,3-Trifluoro-2-hydroxy-1-[(R)-1-(4-hydroxy-cyclohexyl)-7-methyl-1,4,6,7-tetrahydro-pyrazolo[4,3-c]pyridin-5-yl]-2-methyl-propan-1-one] | > 6.52 | > 6.52 | > 6.52 | –
9 | C[C@@H]1CN(C(=O)[C@@](C)(O)C(F)(F)F)Cc2cnn(-c3ccc(F)cn3)c21 [Compound A40, (R)-3,3,3-Trifluoro-1-[(R)-1-(5-fluoro-pyridin-2-yl)-7-methyl-1,4,6,7-tetrahydro-pyrazolo[4,3-c]pyridin-5-yl]-2-hydroxy-2-methyl-propan-1-one] | > 6.52 | > 6.52 | > 6.52 | –
10 | C[C@@](O)(C(=O)N1CCc2ncn(-c3ccccc3)c2C1)C(F)(F)F [Compound A43, (R)-3,3,3-Trifluoro-2-hydroxy-2-methyl-1-(3-phenyl-3,4,6,7-tetrahydro-imidazo[4,5-c]pyridin-5-yl)-propan-1-one] | 5.52 to 6.52 | > 6.52 | – | 5.52 to 6.52
